Legend:
[1] = system: B16 melanoma cells expressing human uPAR; assay: B16-uPAR mouse allograft model; settings: Dox 1 mpk
uPAR = uPAR (Homo sapiens, UniProt Q03405); settings: read-out: affinity for uPAR; reported value; ref 8a; cited from earlier work
Sequence of uPAR (Q03405 23-335): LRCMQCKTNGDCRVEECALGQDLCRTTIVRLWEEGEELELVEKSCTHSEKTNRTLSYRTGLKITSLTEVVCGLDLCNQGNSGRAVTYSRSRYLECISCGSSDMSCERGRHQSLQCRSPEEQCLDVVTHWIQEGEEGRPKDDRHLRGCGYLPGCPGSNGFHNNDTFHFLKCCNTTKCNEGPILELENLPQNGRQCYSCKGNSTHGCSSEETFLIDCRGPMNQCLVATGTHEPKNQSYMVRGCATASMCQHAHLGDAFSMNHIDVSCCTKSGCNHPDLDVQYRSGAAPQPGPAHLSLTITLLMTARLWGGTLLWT

Row | Structure (SMILES) | level of TGI relative to ARM-U2 ([1]; daily IP, combination ARM-U2 20 mpk and Dox 1 mpk) | body weight loss ([1]; throughout the experiments, ARM-U2 20 or 100 mpk) | Kd (uPAR) [nM]
1 | COc1cccc2c1C(=O)c1c(O)c3c(c(O)c1C2=O)C[C@@](O)(C(=O)CO)C[C@@H]3O[C@H]1C[C@H](N)[C@H](O)[C@H](C)O1 [Dox, doxorubicin] | comparable | significant levels of weight loss | 
2 | O=C(O)c1cccc(Nc2cc(N3CCCCCC3)c3noc4c3c2C(=O)c2ccccc2-4)c1 [IPR-803] |  |  | 200

— PMC5597302 (Angewandte Chemie (International ed. in English), 2016)
